# Results taken from US12433875B2, “(R)-4-(1-(6-(4-(trifluoromethyl)benzyl)-6-azaspiro[2.5]octane-5-carboxamido)-cyclopropyl) benzoic acid or its salt also in polymorphic form a for use in the prevention of heterotopic ossification” (ROTTAPHARM BIOTECH S.R.L., priority 2019, dated 2025).
# Test system: Male Lewis rats (CIA model, osteophyte formation)
# Test: CIA model in rats, micro-CT study of bone structure
# Assay type: in vivo, rat
# Description: Male Lewis rats were immunized and treated exactly as described in example 2.
# Specifically, the animals were divided in four groups: controls, vehicle treated CIA rat, and two groups administered with a dose of 10 mg/kg and 30 mg/kg, respectively, of the compound of the invention.
# After 14 days of treatment, bone samples corresponding to hind limbs (left and right) of arthritic rats or sham ones were sent for micro-CT analysis to Atlantic Bone Screen (ABS, 3 rue Aronnax, 44800 SAINT-HERBLAIN France). Bone samples were sent to ABS facilities after they have been removed from soft tissue and fixed in formalin solution within a maximum of 1 week.
# 40 samples were analyses blindly. Then, the unmask data were analyzed to compare the different groups:
# Analyses of calcaneus and knee density and microarchitectural characteristics were performed using the high-resolution X-ray micro-CT. […] To quantitatively compare the four groups, the hind paw calcaneus, knee (proximal tibial and distal femoral epiphysis) and proximal tibial metaphysis were identified as the anatomical sites for micro-CT analysis. The bone mineral density (BMD), bone volume ratio (BV/TV), bone surface (BS) and bone surface-volume ratio (BS/BV) was calculated while including calcaneus, proximal tibial and distal femoral epiphysis (cortical bone, cancellous bone and potential osteophytes).
smiles,measurement,setting,value
"O=C([O-])c1ccc(C2(NC(=O)[C@H]3CC4(CCN3Cc3ccc(C(F)(F)F)cc3)CC4)CC2)cc1.[Na+] [Form A, sodium (R)-4-(1-(6-(4-(trifluoromethyl)benzyl)-6-azaspiro[2.5]octane-5-carboxamido)cyclopropyl)benzoate]",osteophytes at calcaneus and knee (micro-CT),"10 and 30 mg/kg, 14 days of treatment, FIG. 8",the osteophytes disappeared at both site
same,optimal dose (maximal activity) against osteophyte formation,"micro-CT, maintained at 30 mg/kg",10 mg/kg
